Source: patent US10858342B2, “Bicyclic imidazole derivatives useful for the treatment of renal diseases, cardiovascular diseases and fibrotic diseases” (Boehringer Ingelheim International GmbH, priority 2016, dated 2020)
Like-named read-outs stand apart in the source and are kept apart here.

What was measured:
Type in all cases: biochemical, cynomolgus monkey
[1] = molecular target: aldosterone synthase (CYP11B2) (Macaca fascicularis, UniProt A0A2K5UPL9); test: Inhibition of aldosterone synthase (cynomolgus adrenal mitochondria, aldosterone by mass spectrometry); conditions: 2 μM corticosterone substrate, 50 units CYP11B2, 90 min, 37° C.; read-out: Aldosterone Inhibition IC50
Procedure, shortened: (§1)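 Cynomolgus adrenal mitochondria (50 units CYP11B2 activity) incubated with 2 μM corticosterone in 100 mM potassium phosphate pH 7.4, 1% DMSO; started with 1 mM NADPH, 90 min at 37 °C. Aldosterone quantified by mass spectrometry; no-NADPH blank as 0%, no-compound as 100% activity, across compound concentrations.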

[2] = test system: aldosterone synthase (CYP11B2); test: as above; conditions: selectivity for aldosterone synthase inhibition over cortisol synthase (CYP11B1) inhibition, fold
Procedure, shortened: as §1

[3] = molecular target: cortisol synthase (CYP11B1) (Macaca fascicularis, UniProt A0A2K5ULY1); test: Inhibition of cortisol synthesis (cynomolgus adrenal mitochondria, cortisol by mass spectrometry)
Procedure, shortened: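 Cynomolgus adrenal mitochondria (150 units CYP11B1 activity) incubated with 11-deoxycortisol in 100 mM potassium phosphate pH 7.4, 1% DMSO; reaction started with 1 mM NADPH, 90 min at 37° C, stopped with MeCN. Cortisol quantified by mass spectrometry; IC50 from 4-parameter logistic fit versus no-compound (100%) and no-NADPH (0%) controls.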

[4] = 11-deoxycortisol substrate, 150 units CYP11B1; read-out: Cortisol Inhibition IC50
[5] = read-out: Cortisol Inhibition IC50; 11-deoxycortisol substrate, 150 units CYP11B1

aldosterone synthase (CYP11B2) (Macaca fascicularis, UniProt A0A2K5UPL9), sequence (A0A2K5UPL9 1-503): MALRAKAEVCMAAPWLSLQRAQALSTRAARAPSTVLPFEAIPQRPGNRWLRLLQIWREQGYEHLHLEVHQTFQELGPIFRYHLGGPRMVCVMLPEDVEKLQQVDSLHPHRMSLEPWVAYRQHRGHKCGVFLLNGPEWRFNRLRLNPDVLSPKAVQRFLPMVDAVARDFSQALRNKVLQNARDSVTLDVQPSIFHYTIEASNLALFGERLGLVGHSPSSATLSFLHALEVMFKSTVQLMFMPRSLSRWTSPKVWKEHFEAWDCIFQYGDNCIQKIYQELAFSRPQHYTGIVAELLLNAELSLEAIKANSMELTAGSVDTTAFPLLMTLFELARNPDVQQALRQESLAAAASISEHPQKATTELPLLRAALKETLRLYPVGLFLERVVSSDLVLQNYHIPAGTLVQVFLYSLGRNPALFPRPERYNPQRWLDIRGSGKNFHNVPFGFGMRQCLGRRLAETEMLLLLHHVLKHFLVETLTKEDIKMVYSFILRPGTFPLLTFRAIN

Cc1nnsc1Cn1cnc2c1C(=O)CC(C)(C)C2 [C-ADC, 6,6-Dimethyl-3-(4-methyl-[1,2,3]thiadiazol-5-ylmethyl)-3,5,6,7-tetrahydro-benzoimidazol-4-one]
IC50 [1]: 250 nM
Selectivity [2]: 180
IC50 [3, 4]: 45000 nM

CN1CCOc2cc(Cn3cnc4c3C(=O)CC(C)(C)C4)cnc21 [C-ADD, 6,6-Dimethyl-3-(4-methyl-3,4-dihydro-2H-pyrido[3,2-b][1,4]oxazin-7-ylmethyl)-3,5,6,7-tetrahydro-benzoimidazol-4-one]
IC50 [1]: 540 nM
Selectivity [2]: 20
IC50 [3, 4]: 11000 nM

CC1(C)CC(=O)c2c(ncn2C2CCc3ccccc3C2)C1 (stereo not drawn) [C-ADH, 6,6-Dimethyl-3-(1,2,3,4-tetrahydro-naphthalen-2-yl)-3,5,6,7-tetrahydro-benzoimidazol-4-one]
IC50 [1]: 10 nM
Selectivity [2]: 2900
IC50 [3, 4]: 29000 nM

CC1(C)CC(=O)c2c(ncn2CC2CCOCC2)C1 [C-ADI, 6,6-Dimethyl-3-(tetrahydro-pyran-4-ylmethyl)-3,5,6,7-tetrahydro-benzoimidazol-4-one]
IC50 [1]: 470 nM
Selectivity [2]: 41
IC50 [3, 4]: 19000 nM

O=C1CCCc2ncn(C3CCc4ccccc4C3)c21 (stereo not drawn) [C-ADJ, 3-(1,2,3,4-Tetrahydro-naphthalen-2-yl)-3,5,6,7-tetrahydro-benzoimidazol-4-one]
IC50 [1]: 2.8 nM
Selectivity [2]: 420
IC50 [3, 4]: 1200 nM

O=C1CCCc2ncn(C3Cc4ccccc4C3)c21 [C-ADK, 3-Indan-2-yl-3,5,6,7-tetrahydro-benzoimidazol-4-one]
IC50 [1]: 21 nM
Selectivity [2]: 400
IC50 [3, 4]: 8400 nM

CC1(C)CC(=O)c2c(ncn2C2CCc3cc(C#N)ccc3C2)C1 (stereo not drawn) [C-ADN, 6-(5,5-Dimethyl-7-oxo-4,5,6,-tetrahydro-benzoimidazol-1-yl)-5,6,7,8-tetrahydro-naphthalene-2-carbonitrile]
IC50 [1]: 190 nM
Selectivity [2]: 160
IC50 [3, 4]: > 30000 nM

CC1(C)CC(=O)c2c(ncn2Cc2ccc(F)cc2)C1 [C-ADO, 3-(4-Fluoro-benzyl)-6,6-dimethyl-3,5,6,7-tetrahydro-benzoimidazol-4-one]
IC50 [1]: 56 nM
Selectivity [2]: 96
IC50 [3, 4]: 5400 nM

CC1(C)CC(=O)c2c(ncn2Cc2ccc(S(C)(=O)=O)cc2)C1 [C-ADP, 3-(4-Methanesulfonyl-benzyl)-6,6-dimethyl-3,5,6,7-tetrahydro-benzoimidazol-4-one]
IC50 [1]: 92 nM
Selectivity [2]: 17
IC50 [3, 4]: 1600 nM

COc1ccc(Cn2cnc3c2C(=O)CC(C)(C)C3)cc1 [C-ADQ, 3-(4-Methoxy-benzyl)-6,6-dimethyl-3,5,6,7-tetrahydro-benzoimidazol-4-one]
IC50 [1]: 96 nM
Selectivity [2]: 22
IC50 [3, 4]: 2100 nM

CC1(C)CC(=O)c2c(ncn2Cc2ccccc2)C1 [C-ADR, 3-Benzyl-6,6-dimethyl-3,5,6,7-tetrahydro-benzoimidazol-4-one]
IC50 [1]: 97 nM
Selectivity [2]: 97
IC50 [3, 4]: 9400 nM

CN(CCO)C(=O)c1ccc(Cn2cnc3c2C(=O)CC(C)(C)C3)cc1 [C-ADS, 4-(5,5-Dimethyl-7-oxo-4,5,6,7-tetrahydro-benzoimidazol-1-ylmethyl)-N-(2-hydroxy-ethyl)-N-methyl-benzamide]
IC50 [1]: 290 nM
Selectivity [2]: 150
IC50 [3, 4]: 43000 nM

CC1(C)CC(=O)c2c(ncn2Cc2ccc(C(=O)NCCS(C)(=O)=O)cc2)C1 [C-ADU, 4-(5,5-Dimethyl-7-oxo-4,5,6,7-tetrahydro-benzoimidazol-1-ylmethyl)-N-(2-methanesulfonyl-ethyl)-benzamide]
IC50 [1]: 210 nM
Selectivity [2]: 30
IC50 [3, 4]: 6200 nM

CC1(C)CC(=O)c2c(ncn2Cc2ccc(C(C)(C)O)cc2)C1 [C-ADV, 3-[4-(1-Hydroxy-1-methyl-ethyl)-benzyl]-6,6-dimethyl-3,5,6,7-tetrahydro-benzoimidazol-4-one]
IC50 [1]: 25 nM
Selectivity [2]: 1.4
IC50 [3, 4]: 35 nM

CC1(C)CCc2ncn(-c3ccc(C#N)cc3)c2C1=O [C-ADX, 4-(6,6-Dimethyl-7-oxo-4,5,6,7-tetrahydro-benzoimidazol-1-yl)-benzonitrile]
IC50 [1]: 14 nM
Selectivity [2]: 153
IC50 [3, 4]: 2140 nM

CC1CCc2ncn(-c3ccc(C#N)cc3)c2C1=O (stereo not drawn) [C-ADY, 4-(6-Methyl-7-oxo-4,5,6,7-tetrahydro-benzoimidazol-1-yl)-benzonitrile]
IC50 [1]: 24 nM
Selectivity [2]: 152
IC50 [3, 4]: 3640 nM

NC(=O)N1CCCc2cc(-n3cnc4c3C(=O)CCC4)ccc21 [C-ADZ, 6-(7-Oxo-4,5,6,7-tetrahydro-benzoimidazol-1-yl)-3,4-dihydro-2H-quinoline-1-carboxylic acid amide]
IC50 [1]: 99 nM
Selectivity [2]: 300
IC50 [3, 4]: > 30000 nM

N#Cc1ccc(-n2cnc3c2C(=O)CCC3)cc1Cl [C-AEA, 2-Chloro-4-(7-oxo-4,5,6,7-tetrahydro-benzoimidazol-1-yl)-benzonitrile]
IC50 [1]: 8.7 nM
Selectivity [2]: 130
IC50 [3, 5]: 1100 nM

N#Cc1ccc(-n2cnc3c2C(=O)C[C@@H](C(N)=O)C3)cc1Cl [C-AEB-A, (S)-1-(3-Chloro-4-cyano-phenyl)-7-oxo-4,5,6,7-tetrahydro-1H-benzoimidazole-5-carboxylic acid amide]
IC50 [1]: 590 nM
Selectivity [2]: 51
IC50 [3, 5]: > 30000 nM

N#Cc1ccc(-n2cnc3c2C(=O)C[C@H](C(N)=O)C3)cc1Cl [C-AEB-B, (R)-1-(3-Chloro-4-cyano-phenyl)-7-oxo-4,5,6,7-tetrahydro-1H-benzoimidazole-5-carboxylic acid amide]
IC50 [1]: 32 nM
Selectivity [2]: 940
IC50 [3, 5]: > 30000 nM

Cn1ncc2c1CC(n1cnc3c1C(=O)CCC3)CC2 (stereo not drawn) [C-AEF, 3-(1-Methyl-4,5,6,7-tetrahydro-1H-indazol-6-yl)-3,5,6,7-tetrahydro-benzoimidazol-4-one]
IC50 [1]: 190 nM
Selectivity [2]: 160
IC50 [3, 4]: > 30000 nM

CNC(=O)[C@H]1CC(=O)c2c(ncn2-c2ccc(C#N)c(Cl)c2)C1 [C-AEH, (R)-1-(3-Chloro-4-cyano-phenyl)-7-oxo-4,5,6,7-tetrahydro-1H-benzoimidazole-5-carboxylic acid methylamide]
IC50 [1]: 57 nM
Selectivity [2]: 526
IC50 [3, 5]: > 30000 nM
